Data: patent EP2249825B1, “TREATMENT METHODS AND COMPOSITIONS FOR LUNG CANCER, ADENOCARCINOMA, AND OTHER MEDICAL CONDITIONS” (BIONUMERIK PHARMACEUTICALS, INC., priority 2008, dated 2009)

What was measured:
[1] = system: patients with advanced non-small cell lung carcinoma (NSCLC); assay: Japan Phase III Clinical Trial: chemotherapy-induced peripheral neuropathy (Peripheral Neuropathy Questionnaire, PNQ); format: in vivo
Source text: As utilized herein, the term "clinical trial" or "trial", refers to the Japan Phase III Clinical Trial disclosed in the present invention which was utilized to show the ability of Tavocept™ (also referred to in the literature as disodium 2,2'-dithio-bis-ethane sulfonate, dimesna, or BNP7787) to prevent and/or reduce peripheral neuropathy induced by paclitaxel/cisplatin combination therapy. […] The effects of Tavocept™ on the Quality of Life (QOL) of patients under anticancer treatment was also evaluated using the QOL questionnaire, EORTC QLQ-C30. Whether or not Tavocept™ would affect the efficacy of paclitaxel/cisplatin combination therapy was also evaluated based on the response rate, aggravation-free survival period, and total survival period. […]
The Japan Phase III Clinical Trial was conducted as a double-blind study because peripheral neuropathy is diagnosed based on subjective symptoms evaluated through clinical interviews, lab tests, and the like. […] Because the severity of peripheral neuropathy is evaluated based on patients' reports (i.e., subjective symptoms), the Peripheral Neuropathy Questionnaire (PNQ^©) was used in primary evaluation. […]

[2] = system: non-small cell lung carcinoma (NSCLC) patients; assay: Japan Phase III Clinical Trial: decrease in hemoglobin, erythrocyte and hematocrit levels; format: in vivo; conditions: Tavocept arm with paclitaxel and cisplatin, Fig. 3
Source text: (§1) As utilized herein, the term "clinical trial" or "trial", refers to the Japan Phase III Clinical Trial disclosed in the present invention which was utilized to show the ability of Tavocept™ (also referred to in the literature as disodium 2,2'-dithio-bis-ethane sulfonate, dimesna, or BNP7787) to prevent and/or reduce peripheral neuropathy induced by paclitaxel/cisplatin combination therapy. The incidence and severity of adverse reactions, time to their onset, etc. and the like, were compared between patients treated with Tavocept™ and those given a placebo using Quality of Life (QOL) questionnaires (i.e., Peripheral Neuropathy Questionnaire (PNQ^©) and CIPN-20)) and the National Cancer Institute - Common Toxicity Criteria (NCI-CTC). The effects of Tavocept™ on the Quality of Life (QOL) of patients under anticancer treatment was also evaluated using the QOL questionnaire, EORTC QLQ-C30. Whether or not Tavocept™ would affect the efficacy of paclitaxel/cisplatin combination therapy was also evaluated based on the response rate, aggravation-free survival period, and total survival period. In order to make all these evaluations, Tavocept™ (approximately14-22 g/m^2, most preferably approximately 18.4 g/m^2) or placebo (0.9% NaCl) was administered to non-small cell lung carcinoma (NSCLC) patients, including adenocarcinoma patients, under chemotherapy with paclitaxel (approximately 160-190 mg/m^2, most preferably approximately 175 mg/m^2) and cisplatin (approximately 60-100 mg/m^2, most preferably approximately 80 mg/m^2), every 3 weeks (and repeated for a minimum of 2 cycles).
(§2) Data was recently unblinded from a multicenter double-blind randomized placebo-controlled Phase III clinical trial of the Formula (I) compound Tavocept™ (also known as BNP7787, disodium 2,2'-dithio-bis-ethane sulfonate, and dimesna) conducted in Japan (hereinafter the "Japan Phase III Clinical Trial") and involving patients with advanced non-small cell lung carcinoma (NSCLC) who received the chemotherapeutic drugs paclitaxel and cisplatin. […]

[3] = system: non-small cell lung carcinoma (NSCLC); assay: Japan Phase III Clinical Trial: tumor response rate to chemotherapy; format: in vivo, patients; conditions: Tavocept arm with paclitaxel and cisplatin, Fig. 4
Source text: as §1, with “In order to make all these evaluations, Tavocept™ (approximately14-22 g/m^2, most preferably approximately 18.4 g/m^2) or placebo (0.9% NaCl) was administered to non-small cell lung carcinoma (NSCLC) patients, including adenocarcinoma patients, under chemotherapy with paclitaxel (approximately 160-190 mg/m^2, most preferably approximately 175 mg/m^2) and cisplatin (approximately 60-100 mg/m^2, most preferably approximately 80 mg/m^2), every 3 weeks (and repeated for a minimum of 2 cycles).” left out

[4] = system: non-small cell lung carcinoma (NSCLC); assay: Japan Phase III Clinical Trial: patient survival, NSCLC; format: in vivo, patients
Source text: as §1, §2

adenocarcinoma = assay: Japan Phase III Clinical Trial: patient survival, adenocarcinoma; format: in vivo, patients
Source text: as §1, with “In order to make all these evaluations, Tavocept™ (approximately14-22 g/m^2, most preferably approximately 18.4 g/m^2) or placebo (0.9% NaCl) was administered to non-small cell lung carcinoma (NSCLC) patients, including adenocarcinoma patients, under chemotherapy with paclitaxel (approximately 160-190 mg/m^2, most preferably approximately 175 mg/m^2) and cisplatin (approximately 60-100 mg/m^2, most preferably approximately 80 mg/m^2), every 3 weeks (and repeated for a minimum of 2 cycles).” left out

[5] = system: non-small cell lung carcinoma (NSCLC) patients; assay: Japan Phase III Clinical Trial: other chemotherapy-related symptoms and toxicities; format: in vivo
Source text: as §1
Data was recently unblinded from a multicenter double-blind randomized placebo-controlled Phase III clinical trial of the Formula (I) compound Tavocept™ (also known as BNP7787, disodium 2,2'-dithio-bis-ethane sulfonate, and dimesna) conducted in Japan (hereinafter the "Japan Phase III Clinical Trial") and involving patients with advanced non-small cell lung carcinoma (NSCLC) who received the chemotherapeutic drugs paclitaxel and cisplatin.
Patients admitted into the trial included those patients without previous treatment (excluding surgical treatment, administration of Picibanil into the serous membrane, irradiation of 30% or less hematopoietic bone, or oral chemotherapeutic agents within 3 months of entry in the trial).
The Japan Phase III Clinical Trial was conducted as a double-blind study because peripheral neuropathy is diagnosed based on subjective symptoms evaluated through clinical interviews, lab tests, and the like. Accordingly, evaluations by both physicians and patients are highly important. […] A placebo was used as control since there is no established therapy or drug for preventing peripheral neuropathy. Because the severity of peripheral neuropathy is evaluated based on patients' reports (i.e., subjective symptoms), the Peripheral Neuropathy Questionnaire (PNQ^©) was used in primary evaluation. CIPN-20 and NCI-CTC were used in secondary evaluation. The incidence and severity of adverse reactions, time to their onset, etc. and the like, were compared between patients treated with Tavocept™ and those given a placebo using the aforementioned methods.
In order to conduct the present trial, Tavocept™ (approximately14-22 g/m^2, most preferably approximately 18.4 g/m^2) or placebo (0.9% NaCl) was administered to non-small cell lung carcinoma (NSCLC) patients receiving chemotherapy with paclitaxel (approximately 160-190 mg/m^2, most preferably approximately 175 mg/m^2) and cisplatin (approximately 60-100, most preferably approximately 80 mg/m^2), every 3 weeks (and repeated for a minimum of 2 cycles).

[6] = clinical trial population, summary statement

O=S(=O)([O-])CCSSCCS(=O)(=O)[O-].[Na+].[Na+] [Tavocept™, disodium 2,2'-dithio-bis-ethane sulfonate]
chemotherapy-induced peripheral neuropathy ([1]; Tavocept and chemotherapy vs chemotherapy and placebo, summary statement): medically-important reductions
reduction in severe (Grade D or E) peripheral neuropathy ([1]; paclitaxel/Tavocept/cisplatin regimen vs paclitaxel/saline placebo/cisplatin regimen, PNQ, Fig. 1): ~50%
patients with Grade 3 (severe) decrease in hematocrit levels ([2]; placebo arm 5): 1 patients
patients with Grade 3 (severe) decrease in red blood cell ([2]; placebo arm 5): 1 patients
patients with Grade 3 (severe) decrease in hemoglobin ([2]; placebo arm 8): 2 patients
response rate as measured by the IRC ([3]; Independent Radiological Committee, placebo arm 28.6%): 33.3%
Response Rate, as measured by physicians ([3]; placebo arm 33.0%): 41.9%
increase in median survival time ([4]; NSCLC patients, paclitaxel/Tavocept/cisplatin vs paclitaxel/saline placebo/cisplatin, Fig. 5): up to 40 days
survival period ([4]; female NSCLC patients, paclitaxel/Tavocept/cisplatin vs paclitaxel/saline placebo/cisplatin, Fig. 6): longer survival period
survival times ([4]; patients with advanced NSCLC receiving Tavocept and chemotherapy, summary statement): increased survival times
increase in median survival time (adenocarcinoma; adenocarcinoma patients, paclitaxel/Tavocept/cisplatin vs paclitaxel/saline placebo/cisplatin, Fig. 7): up to 138 days
survival time (adenocarcinoma; patients with adenocarcinoma receiving Tavocept and chemotherapy, summary statement): medically-important increase
chemotherapy-induced kidney damage [5, 6]: medically-important reductions
chemotherapy-induced vomiting/emesis [5, 6]: medically-important reductions
anorexia ([5]; p = 0.0029, paclitaxel/Tavocept/cisplatin vs placebo regimen): reductions
fatigue ([5]; p = 0.0163, paclitaxel/Tavocept/cisplatin vs placebo regimen): reductions
nausea/vomiting ([5]; p = 0.0240, paclitaxel/Tavocept/cisplatin vs placebo regimen): reductions
diarrhea ([5]; p = 0.0859, paclitaxel/Tavocept/cisplatin vs placebo regimen): reductions
insomnia ([5]; p = 0.1108, paclitaxel/Tavocept/cisplatin vs placebo regimen): reductions
constipation ([5]; p = 0.1114, paclitaxel/Tavocept/cisplatin vs placebo regimen): reductions
